Tests used:
[1] = tested on: CD8 T cells from HLA-A2+ type 1 diabetic patients; experiment: Interferon-gamma cytokine ELISPOT with patient PBMCs; assay type: cell-based, human; settings: PBMCs of patients with new-onset type 1 diabetes and HLA-A2; peptide 10 μM; FIG. 8a
Method: The following ELISPOT assays were carried out using the methods substantially as described in Arif et al., (2004) J Clin Invest 113: 451-63.
Fresh peripheral blood mononuclear cells (PBMCs) in RPMI 1640 supplemented with antibiotics (TC medium; all Life Technologies) and 10% human AB serum (Harlan SeraLab, Leicestershire, UK) were dispensed into 48-well plates at a density of 2×10^6 cells in 0.5 ml supplemented with peptide to a final concentration of 10 μM and incubated at 37° C., 5% CO2, tilted by 5°. Control wells comprised TC medium containing an equivalent concentration of peptide diluent alone (DMSO). On day +1, 0.5 ml pre-warmed TC medium/10% AB was added and on day +2, non-adherent cells were re-suspended using pre-warmed TC medium/2% AB, washed, brought to a concentration of 1×10^6 cells/300 μl and 100 μl dispensed in triplicate into wells of 96-well ELISA plates (Nunc Maxisorp, Merck, Poole, UK) pre-blocked with 1% BSA in PBS and pre-coated with monoclonal anti-IFN-γ capture antibody (U-Cytech, Utrecht, NL). After capture at 37° C., 5% CO2 for 7 hours, cells were lysed in ice cold water, plates washed in PBS/Tween 20 and spots developed according to the manufacturer's instructions. Plates were dried and spots of 80-120 μm counted in a BioReader 3000 (BioSys, Karben, Germany). […]

[2] = tested on: soluble HLA-A2 molecules; settings: synthetic peptide; Chang et al., (2003) Tissue Antigens 62: 408-417; cited from earlier work

| Sequence | CD8 T cell reactivity to PPI peptide by interferon-gamma ELISPOT [1] | Capability of being loaded in-vitro by soluble HLA-A2 [2] |
| --- | --- | --- |
| ALWGPDPAAA [PPI15-24] | demonstrate the presence of CD8 T cells specific for | capable of being loaded in-vitro by soluble HLA-A2 molecules |
| WGPDPAAA [PPI17-24] | demonstrate the presence of CD8 T cells specific for |  |
